This note sets out measurements from ChEMBL document CHEMBL1201862, “PubChem BioAssay data set” (2004).

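Dose response: 5 concentrations. Exposure: 48 h. Format: 96-well plates. Endpoint: linear interpolation; highest concentration if not reached. At the GI50, growth is halved.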 Calls of active or inactive are those of the source. Cut-off read from the data, not from the text of the source: active = GI50 up to about 1.1 µM and inactive = higher.

Some test systems named below: A498; EKVX; HCT-15; HOP-62; HT-29; IGROV-1; MDA-MB-231; NCI-H23; NCI-H522; OVCAR-4; OVCAR-8; PC-3; RPMI-8226; SK-MEL-28; SK-MEL-5; SK-OV-3; SN12C; SNB-75; UACC-62; UO-31.
Holding throughout (experiment): inhibition of tumour cell growth, NCI panel, 48 h

Take `Cc1cc(Cc2cc(C)cc(C(C)(C)C)c2O)c(O)c(Cc2cc(C)cc(C(C)(C)C)c2O)c1`: the GI50 with A498 is 2.39 µM (inactive); with EKVX it was 2.82 µM (inactive); with HCT-15 it was 2.24 µM; in the assay on HOP-62 it was 2.88 µM (inactive); in the assay on HT-29, 2.55 µM (inactive); with IGROV-1, 3.25 µM (inactive). Moreover, the GI50 was 1.79 µM (inactive) in the assay with MDA-MB-231; 1.66 µM (inactive) in the assay with NCI-H23; 0.931 µM (active) in the assay on NCI-H522; 4.05 µM (inactive) in the assay on OVCAR-4; 2.75 µM (inactive) in the assay on OVCAR-8; 2.75 µM (inactive) in the assay with PC-3. Also, the GI50 was 0.724 µM (active) with RPMI-8226; 4.14 µM (inactive) in the assay with SK-MEL-28; 1.08 µM (active) in the assay on SK-MEL-5; 3.33 µM (inactive) in the assay on SK-OV-3; 2.34 µM (inactive) with SN12C; 4.62 µM (inactive) with SNB-75. Further, the GI50 is 1.86 µM (inactive) in the assay with UACC-62 and 2.98 µM (inactive) with UO-31.

On to `COC(=O)c1ccc(CCC2=CC(=O)C(Br)=CC2=O)cc1`, for which the GI50 with A498 is 20.2 µM (inactive); in the assay with EKVX, 19 µM (inactive); with HCT-15 it was 14.5 µM; in the assay with HOP-62 it was 17.8 µM (inactive); with HT-29, 16.7 µM (inactive); in the assay on IGROV-1, 15 µM (inactive). In addition, the GI50 is 18.6 µM (inactive) in the assay on MDA-MB-231; 15.1 µM (inactive) in the assay on NCI-H23; 2.68 µM (inactive) in the assay with NCI-H522; 17.2 µM (inactive) in the assay on OVCAR-4; 16.3 µM (inactive) in the assay on OVCAR-8; 16.9 µM (inactive) in the assay with PC-3. The GI50 is 10.2 µM (inactive) in the assay with RPMI-8226; 16.7 µM (inactive) in the assay with SK-MEL-28; 12.1 µM (inactive) in the assay on SK-MEL-5; 17.8 µM (inactive) with SK-OV-3; 17.5 µM (inactive) in the assay with SN12C; 14 µM (inactive) in the assay on SNB-75. Further, the GI50 in the assay with UACC-62 is 17.8 µM (inactive); in the assay with UO-31, 15.8 µM (inactive).

Regarding `C[C@]12CC[C@@H]3c4ccc(O)cc4CC[C@H]3[C@@H]1C/C(=C\c1ccc(C#N)cc1)C2=O`, the GI50 was > 100 µM (inactive) in the assay with A498; 34.8 µM (inactive) in the assay with EKVX; 71.8 µM with HCT-15; 40.4 µM (inactive) with HOP-62; 24.9 µM (inactive) with HT-29; 46.1 µM (inactive) with IGROV-1. Besides, the GI50 with MDA-MB-231 is 23.3 µM (inactive); in the assay with NCI-H23, 38.2 µM (inactive); in the assay on NCI-H522, 17.4 µM (inactive); in the assay on OVCAR-4, 40.5 µM (inactive); in the assay on OVCAR-8, 55.5 µM (inactive); in the assay on PC-3, 18.6 µM (inactive). Further, the GI50 in the assay with RPMI-8226 was 13.3 µM (inactive); in the assay with SK-MEL-28, 36.2 µM (inactive); in the assay with SK-MEL-5, 19.2 µM (inactive); in the assay with SK-OV-3 it was 57 µM (inactive); in the assay with SN12C it was 68.4 µM (inactive); in the assay with SNB-75 it was 94 µM (inactive). The GI50 in the assay on UACC-62 is 61.1 µM (inactive); in the assay with UO-31, 46.9 µM (inactive).

As for `O=C1C(=O)N(c2cccc(C(F)(F)F)c2)C(=S)N1c1ccccc1`, the GI50 with A498 is 21.9 µM (inactive); in the assay with EKVX it was 30.9 µM (inactive); with HCT-15 it was 19.1 µM; in the assay on HOP-62, 34.2 µM (inactive); with HT-29, 36.5 µM (inactive); in the assay with IGROV-1 it was 22.4 µM (inactive). Moreover, the GI50 was 24.4 µM (inactive) in the assay on MDA-MB-231; 25.5 µM (inactive) with NCI-H23; 6.44 µM (inactive) in the assay on NCI-H522; 41.1 µM (inactive) in the assay on OVCAR-4; 33.7 µM (inactive) with OVCAR-8; 30.8 µM (inactive) in the assay with PC-3. Besides, the GI50 in the assay with RPMI-8226 is 36.2 µM (inactive); with SK-MEL-28, 28 µM (inactive); with SK-MEL-5 it was 17.9 µM (inactive); in the assay on SK-OV-3 it was 19.3 µM (inactive); with SN12C it was 34.4 µM (inactive); in the assay on SNB-75, 34.5 µM (inactive). For the same compound, the GI50 in the assay with UACC-62 is 14.9 µM (inactive); with UO-31, 25.2 µM (inactive).

With `O=C(Nn1cnn2c(=O)c3ccccc3nc2c1=O)c1ccccc1`, the GI50 is > 100 µM (inactive) with A498; > 100 µM (inactive) in the assay on EKVX; above 100 µM in the assay with HCT-15; > 100 µM (inactive) with HOP-62; > 100 µM (inactive) with HT-29; > 100 µM (inactive) with IGROV-1. Further, the GI50 in the assay on MDA-MB-231, in the assay with NCI-H23, with NCI-H522, with OVCAR-4, in the assay with OVCAR-8 and with PC-3 was > 100 µM (inactive) throughout. In addition, the GI50 with RPMI-8226, with SK-MEL-28, in the assay on SK-MEL-5, in the assay on SK-OV-3, in the assay on SN12C and in the assay with SNB-75 was > 100 µM (inactive) throughout. For the same compound, the GI50 with UACC-62 and with UO-31 was > 100 µM (inactive) each time.

As to `OC1[C@@H]2[C@@H](O)CCCN2C[C@@H](O)[C@H]1O` (stereo not given in full), the GI50 in the assay with A498 was > 100 µM (inactive); with EKVX it was > 100 µM (inactive); in the assay with HCT-15, above 100 µM; with HOP-62, > 100 µM (inactive); in the assay with HT-29, > 100 µM (inactive); with IGROV-1, > 100 µM (inactive). The GI50 in the assay with MDA-MB-231 is > 100 µM (inactive); in the assay with NCI-H23, > 100 µM (inactive); in the assay on NCI-H522 it was 19.5 µM (inactive); in the assay with OVCAR-4, > 100 µM (inactive); with OVCAR-8, > 100 µM (inactive); with PC-3 it was > 100 µM (inactive). Also, the GI50 in the assay on RPMI-8226, with SK-MEL-28, in the assay on SK-MEL-5, in the assay on SK-OV-3, with SN12C and with SNB-75 was > 100 µM (inactive) throughout. For the same compound, the GI50 with UACC-62 and in the assay with UO-31 was > 100 µM (inactive) each time.

Take `O=c1c2cc(I)ccc2nc(Sc2ncccc2[N+](=O)[O-])n1Cc1ccccc1`: the GI50 is 24.6 µM (inactive) with A498; 17.7 µM (inactive) in the assay on EKVX; 19.3 µM in the assay on HCT-15; 70 µM (inactive) in the assay with HOP-62; 34.2 µM (inactive) in the assay on HT-29; 13.7 µM (inactive) in the assay on IGROV-1. Further, the GI50 in the assay on MDA-MB-231 was 21.1 µM (inactive); in the assay on NCI-H23, 24 µM (inactive); with NCI-H522, 13.2 µM (inactive); in the assay with OVCAR-4, 33.3 µM (inactive); in the assay on OVCAR-8 it was 31 µM (inactive); in the assay on PC-3, 26.5 µM (inactive). Besides, the GI50 was 19.1 µM (inactive) with RPMI-8226; > 100 µM (inactive) in the assay with SK-MEL-28; 18.3 µM (inactive) with SK-MEL-5; 63.1 µM (inactive) in the assay with SK-OV-3; 20.6 µM (inactive) with SN12C; 7.08 µM (inactive) with SNB-75. The figures for the GI50 in the assay with UACC-62 and in the assay with UO-31 were 21.2 µM (inactive) and 14.3 µM (inactive), respectively.
